Assay results: PubChem BioAssay (NCI)
Several values for one entry are separate records, joined by “and”; a condition that tells them apart may be missing. Identical values can stand only once.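 Briefly, cells in 96-well plates were exposed to five compound concentrations for 48 h, and endpoints were estimated by linear interpolation. The concentration for 50% growth inhibition is given as GI50. TGI: total growth inhibition.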

How the values were obtained:
Experiment in all cases: DTP human tumour cell line panel, 48 h
HCC-2998 colon = tested on: HCC-2998 colon
HT29 colon = tested on: HT29 colon
MDA-MB-231 breast = tested on: MDA-MB-231 breast
MDA-MB-435 = tested on: MDA-MB-435
NCI-H23 lung = tested on: NCI-H23 lung
SN12C renal = tested on: SN12C renal
SW-620 colon = tested on: SW-620 colon
TK-10 renal = tested on: TK-10 renal
UACC-257 melanoma = tested on: UACC-257 melanoma
UO-31 renal = tested on: UO-31 renal

Compound | GI50 (HCC-2998 colon) | TGI (HCC-2998 colon) | GI50 (HT29 colon) | TGI (HT29 colon) | GI50 (MDA-MB-231 breast) | TGI (MDA-MB-231 breast) | GI50 (MDA-MB-435) | TGI (MDA-MB-435) | GI50 (NCI-H23 lung) | TGI (NCI-H23 lung) | GI50 (SN12C renal) | TGI (SN12C renal) | GI50 (SW-620 colon) | TGI (SW-620 colon) | GI50 (TK-10 renal) | TGI (TK-10 renal) | GI50 (UACC-257 melanoma) | TGI (UACC-257 melanoma) | GI50 (UO-31 renal) | TGI (UO-31 renal)
C/C(=N/O)c1cccc(Nc2cc(-n3nnc4ccccc43)nc3ccccc23)c1 | 10.5 µM | 23.2 µM | 12.3 µM | > 100 µM | 7.2 µM | > 23.4 µM | 13.7 µM | 37.1 µM | 15.7 µM | 35.5 µM | 8.96 µM | 30.5 µM | 21.5 µM | 57 µM | 13.6 µM | 50.2 µM | 22.7 µM | > 64.4 µM | 25 µM | > 100 µM
CC(C)=CCN1c2ccccc2NC(=O)CC1C (centres undefined) | – | > 100 µM | – | > 100 µM | – | > 100 µM | – | > 100 µM | – | > 100 µM | – | 81.2 µM | – | > 100 µM | – | > 100 µM | – | > 100 µM | – | > 100 µM
C[C@@H](NC(C#N)c1ccco1)c1ccccc1 (some centres undefined) | – | > 100 µM | – | > 100 µM | – | – | – | > 100 µM | – | > 100 µM | – | > 100 µM | – | > 100 µM | – | > 100 µM | – | > 100 µM | – | > 100 µM
O=C1OCC2=C1C(c1cccc(F)c1)c1cc3c(cc1N2CCO)OCO3 (centres undefined) | 7.06 µM | > 50 µM | 1.52 µM | > 50 µM | 3.09 µM | > 50 µM | 0.187 µM | 1.57 µM | 3.96 µM | > 50 µM | 3.05 µM | > 50 µM | 1.65 µM | > 50 µM | 15.6 µM | > 50 µM | > 50 µM | > 50 µM | 2.88 µM | > 50 µM
Cc1ccc2cnc(N)c(C#Cc3cc(C(=O)Nc4ccc(CN5CCN(C)CC5)c(C(F)(F)F)c4)cnc3C)c2c1 | 1.59 µM | 8.46 µM | 0.139 µM | 0.776 µM | 0.29 µM | 1.06 µM | 0.262 µM | 1.01 µM | 0.727 µM | 1.82 µM | 0.317 µM | 1.06 µM | 0.344 µM | 1.07 µM | 0.731 µM | 1.48 µM | 0.651 µM | 1.48 µM | 0.621 µM | 1.3 µM
CC(=O)c1c(C(F)(F)F)n([O-])c2ccccc2[n+]1=O | – | – | 1.3 µM | 8.3 µM | 1.27 µM | 3.61 µM | 1.2 µM | 4.03 µM | 1 µM | 2.43 µM | 1.07 µM | 3.17 µM | 1.57 µM | 13.3 µM | 1.2 µM | 5.59 µM | 2.77 µM | 13.6 µM | 2.69 µM | 12.1 µM
C1CSCCCSCCCSCCCSCCCSCCCSCCCSCCCSC1 | – | > 100 µM | – | > 100 µM | – | > 100 µM | – | > 100 µM | – | > 100 µM | – | > 100 µM | – | > 100 µM | – | > 100 µM | – | > 100 µM | – | > 100 µM
N#C[Se]Cc1cc(-c2ccccc2)n(-c2ccc(S(N)(=O)=O)cc2)n1 | 2.24 µM | 4.94 µM | 1.46 µM | 3.36 µM | 0.912 µM | 3.12 µM | 0.605 µM | 2.45 µM | 0.495 µM | 2.55 µM | 0.527 µM | 4.1 µM | 2.18 µM | 4.8 µM | 2.35 µM | 7.83 µM | 2.21 µM | 6.63 µM | 1.49 µM | 5.96 µM
O=S(=O)(/N=c1\scc(-c2ccccc2)n1-c1ccccc1)c1ccc(N2N=C3c4ccccc4CC3C2c2ccc(Cl)cc2)cc1 (centres undefined) | – | – | 44 µM | > 100 µM | 70 µM | > 100 µM | 24.2 µM | > 100 µM | 21 µM | 51.3 µM | 50.8 µM | > 100 µM | 35 µM | > 100 µM | 29.6 µM | > 100 µM | 83.5 µM | > 100 µM | 45.4 µM | > 100 µM
CO/N=C(\COc1ccc2c(c1)[nH]c1ccccc12)c1ccc(OC)cc1 | > 100 µM | > 100 µM | 4.36 µM | > 100 µM | > 100 µM | > 100 µM | 43.3 µM | > 100 µM | 32.2 µM | > 100 µM | 57.9 µM | > 100 µM | > 100 µM | > 100 µM | 13.6 µM | 66.7 µM | 11.4 µM | 47.1 µM | > 100 µM | > 100 µM
COc1ccc2c(c1)C(=O)/C(=C/c1cccc(OCC(=O)c3ccccc3)c1)CC2 | 25.8 µM | > 100 µM | 9.9 µM | > 100 µM | 69.9 µM | > 100 µM | 2.09 µM | 10.5 µM | 18.9 µM | > 100 µM | 61 µM | > 100 µM | 4.88 µM | > 100 µM | > 100 µM | > 100 µM | 8.56 µM | > 100 µM | 29.2 µM | > 100 µM
CN(C)CCNC(=O)Cn1ccc(=O)c2cc([N+](=O)[O-])ccc21 | – | > 100 µM | – | > 100 µM | – | – | – | > 100 µM | – | > 100 µM | – | > 100 µM | – | > 100 µM | – | > 100 µM | – | > 100 µM | – | > 100 µM
FC(F)(F)c1cccc(-c2nc3nc(Cl)c(Cl)nc3[nH]2)c1 | – | 8.04 µM | – | 9.2 µM | – | 8.39 µM | – | 13 µM | – | 14.7 µM | – | > 35.9 µM | – | > 42.3 µM | – | > 76.1 µM | – | > 30.9 µM | – | 3.88 µM
c1ccc(-c2nc(-c3ccccn3)nc(-c3ccccn3)n2)nc1 | 75.5 µM | > 100 µM | 6.73 µM | > 100 µM | 32.6 µM | > 100 µM | 41.3 µM | > 100 µM | 54.9 µM | > 100 µM | 56.6 µM | > 100 µM | 28 µM | > 100 µM | 45.5 µM | > 100 µM | 39.9 µM | > 100 µM | 3.18 µM | > 100 µM
Cn1ncc(-c2ccc3c(=O)[nH]nc(CN)c3c2)c1-c1c(F)c(Cl)cc(OC2CC2)c1C#N | 14.2 µM and 14.5 µM | 28 µM and 28.3 µM | 11.6 µM and 10.3 µM | 29.6 µM and 22.7 µM | 14.7 µM and 13.8 µM | 29.8 µM and 28.4 µM | 11.9 µM and 10.7 µM | 24.7 µM and 22.9 µM | 15.3 µM and 14.3 µM | 32 µM and 29.6 µM | 13.5 µM and 11.8 µM | 28.7 µM and 25.3 µM | 13.8 µM and 12.6 µM | 29.4 µM and 27.3 µM | 16.2 µM and 13.7 µM | 31.8 µM and 27.2 µM | 13.9 µM and 14.1 µM | 28.4 µM and 29.4 µM | 12.4 µM and 10.3 µM | 24.9 µM and 22.1 µM
